According to BindingDB's records for doi:10.1021/jm4013906 (Bristol-Myers Squibb, 2013):

Assay: Antagonist activity at P2Y1 receptor in platelet-enriched human plasma assessed as 10 uM ADP-induced platelet aggregation preincubated for 1 min followed by ADP induction measured at 5 mins by aggregometric analysis

Compared with `CC(C)(C)CN1CCC2(CC1)CN(c1ccccc1NC(=O)Nc1ccc(OC(F)(F)F)cc1)c1ccncc12`, `CC(C)(C)CN1CCC2(CC1)CN(c1ccccc1NC(=O)Nc1ccc(OC(F)(F)F)cc1)c1cnccc12` is lower in IC50: greater than 40 µM for the first, 4 µM for the second.

First: CC(C)(C)CN1CCC2(CC1)CN(c1ccccc1NC(=O)Nc1ccc(OC(F)(F)F)cc1)c1ncccc12
Second: CC(C)(C)CN1CCC2(CC1)CN(c1ccccc1NC(=O)Nc1ccc(OC(F)(F)F)cc1)c1cccnc12
The IC50 of the first is higher: greater than 40 µM for the first, 15.1 µM for the second. The second is the more potent here.

Compared with `CC(C)N1CCC2(CC1)CN(c1ccccc1NC(=O)Nc1ccc(OC(F)(F)F)cc1)c1ccccc12`, `CC(C)CN1CCC2(CC1)CN(c1ccccc1NC(=O)Nc1ccc(OC(F)(F)F)cc1)c1ccccc12` is 3.3-fold lower in IC50: 29.2 µM for the first, 8.8 µM for the second.

Going from `O=C(Nc1ccc(OC(F)(F)F)cc1)Nc1ccccc1N1CC2(CCN(Cc3ccccc3)CC2)c2ccccc21` to `CC(C)(C)CN1CCC2(CC1)CN(c1ccccc1NC(=O)Nc1ccc(OC(F)(F)F)cc1)c1ccccc12`, the IC50 falls from 18.6 µM to 4.9 µM (3.8-fold).

Compared with `CC(C)(C)CN1CCC2(C1)CN(c1ccccc1NC(=O)Nc1ccc(OC(F)(F)F)cc1)c1ccccc12` (stereo not drawn), `CC(C)(C)CN1CCCC2(C1)CN(c1ccccc1NC(=O)Nc1ccc(OC(F)(F)F)cc1)c1ccccc12` (stereo not drawn) is higher in IC50: 18.5 µM for the first, greater than 40 µM for the second.

Compared with `COC(=O)N1CCC2(CC1)CN(c1ccccc1NC(=O)Nc1ccc(OC(F)(F)F)cc1)c1ccccc12`, `CC(C)(C)CN1CCC2(CC1)CCN(c1ccccc1NC(=O)Nc1ccc(OC(F)(F)F)cc1)c1ccccc12` is 8.6-fold lower in IC50: 54.2 µM for the first, 6.3 µM for the second.

Assay: Antagonist activity at P2Y1 receptor in platelet-enriched human plasma assessed as 2.5 uM ADP-induced platelet aggregation preincubated for 1 min followed by ADP induction measured at 5 mins by aggregometric analysis

First: COCCN1CCC2(CC1)CN(c1ccccc1NC(=O)Nc1ccc(OC(F)(F)F)cc1)c1ccccc12
Second: CC(C)CN1CCC2(CC1)CN(c1ccccc1NC(=O)Nc1ccc(OC(F)(F)F)cc1)c1ccccc12
The IC50 of the first is 12-fold higher: 25.4 µM for the first, 2.2 µM for the second. The second is the more potent here.

Going from `CC(C)N1CCC2(CC1)CN(c1ccccc1NC(=O)Nc1ccc(OC(F)(F)F)cc1)c1ccccc12` to `CC(C)NC(=O)N1CCC2(CC1)CN(c1ccccc1NC(=O)Nc1ccc(OC(F)(F)F)cc1)c1ccccc12`, the IC50 rises from 4.7 µM to greater than 10 µM. The first is the more potent here.

`CN1CCN(c2ccccc2NC(=O)Nc2ccc(OC(F)(F)F)cc2)c2ccccc21` and `CC1CCN(c2ccccc2NC(=O)Nc2ccc(OC(F)(F)F)cc2)c2ccccc21` (stereo not drawn) cannot be ordered by IC50: greater than 10 µM for the first, greater than 10 µM for the second.

`CC1(C)CN(c2ncccc2NC(=O)Nc2ccc(OC(F)(F)F)cc2)c2ccccc21` and `CC1(C)CCN(c2ncccc2NC(=O)Nc2ccc(OC(F)(F)F)cc2)c2ccccc21` cannot be ordered by IC50: greater than 10 µM for the first, 11.1 µM for the second.

Going from `O=C(Nc1ccc(OC(F)(F)F)cc1)Nc1ccccc1N1CC2(CCN(Cc3ccccc3)CC2)c2ccccc21` to `O=C(Nc1ccc(OC(F)(F)F)cc1)Nc1ccccc1N1CC2(CCN(C(=O)OCc3ccccc3)CC2)c2ccccc21`, the IC50 rises from 3.3 µM to greater than 10 µM. The first is the more potent here.

Going from `COC(=O)N1CCC2(CC1)CN(c1ccccc1NC(=O)Nc1ccc(OC(F)(F)F)cc1)c1ccccc12` to `O=C(Nc1ccc(OC(F)(F)F)cc1)Nc1ccccc1N1CC2(CC2)c2ccccc21`, the IC50 rises from 5.8 µM to greater than 10 µM.

Going from `O=C(Nc1ccc(OC(F)(F)F)cc1)Nc1ccccc1N1CC2(CCC2)c2ccccc21` to `O=C(Nc1ccc(OC(F)(F)F)cc1)Nc1ccccc1N1CC2(CCCC2)c2ccccc21`, the IC50 falls from 4.1 µM to 2.4 µM (1.7-fold). The second is the more potent here.

Compared with `CC1(C)CN(c2ccccc2NC(=O)Nc2ccc(OC(F)(F)F)cc2)c2ccccc21`, `CC1(C)CCN(c2ccccc2NC(=O)Nc2ccc(OC(F)(F)F)cc2)c2ccccc21` is 3.9-fold lower in IC50: 8.5 µM for the first, 2.2 µM for the second. The second is the more potent here.

First: O=C(Nc1ccc(OC(F)(F)F)cc1)Nc1ccccc1N1CC2(CCCCC2)c2ccccc21
Second: CC(C)(C)CN1CCC2(CC1)CN(c1ccccc1NC(=O)Nc1ccc(OC(F)(F)F)cc1)c1ccccc12
The IC50 of the first is 3-fold higher: 2 µM for the first, 0.67 µM for the second.

`CC1(C)CN(c2ccccc2NC(=O)Nc2ccc(OC(F)(F)F)cc2)c2ccccc2O1` and `O=C(Nc1ccc(OC(F)(F)F)cc1)Nc1ccccc1N1CCOc2ccccc21` cannot be ordered by IC50: greater than 10 µM for the first, greater than 10 µM for the second.

Work on `O=C(Nc1ccc(OC(F)(F)F)cc1)Nc1ccccc1N1CCCc2ccccc21` yielded an IC50 greater than 10 µM.
